The values below come from patent US11053206B2, “Hydrofluorocarboximidate and methods of making and using the same” (3M INNOVATIVE PROPERTIES COMPANY, priority 2017, dated 2021).

The series in a line: Thermal stability (purity by GC-FID after heating with absorbent). It is filed as physicochemical. The settings on record: initial purity 97.7%. As to the method:
The samples were stirred for 24 h at 50° C. and then analyzed for purity by GC-FID. The % purity EX-6 initially was 97.7%. Shown in Table 2 below are the % purity after the thermal stability test. All of the results are within error of the test method.

On to `CO/C(=N\C(F)(F)C(F)(F)C(F)(F)F)C(F)(F)C(F)(F)F` [EX-6, methyl 2,2,3,3,3-pentafluoro-N-(perfluoropropyl)propanimidate], for which the “Purity (%) after thermal stability test” value reads like this: (100 mg 4 Angstrom Molecular Sieves, 1 g stirred 24 h at 50° C.) 98.0%; (100 mg Activated Carbon, 1 g stirred 24 h at 50° C.) 98.2%; (100 mg Basic Alumina, 1 g stirred 24 h at 50° C.) 98.0%; (100 mg K2CO3, 1 g stirred 24 h at 50° C.) 97.9%; (100 mg Silica Gel, 1 g stirred 24 h at 50° C.) 97.9%; (No absorbent, 1 g stirred 24 h at 50° C.) 97.7%.
